In ChEMBL document CHEMBL1201862, “PubChem BioAssay data set” (2004):
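48-hour exposure; five concentrations; linearly interpolated endpoints. GI50 marks 50% less growth.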 Active and inactive are the calls of the source. Rule as the data show it: active = GI50 up to about 1.1 µM and inactive = higher.

Key:
Assay in all cases: DTP human tumour cell line panel, 48 h
[1] = test system: KM12
[2] = test system: HCT-15
[3] = test system: UACC-62
[4] = test system: ACHN
[5] = test system: HL-60
[6] = test system: SNB-75
[7] = test system: NCI-H460
[8] = test system: LXFL 529
[9] = test system: PC-3
[10] = test system: CCRF-CEM
[11] = test system: SNB-19
[12] = test system: SK-OV-3
[13] = test system: RXF 393
[14] = test system: MDA-MB-435
[15] = test system: A549
[16] = test system: MDA-MB-231
[17] = test system: T47D
[18] = test system: MCF7
[19] = test system: NCI/ADR-RES
[20] = test system: M14

Measured: GI50

CCOC(=O)CN1C(=O)c2cc([N+](=O)[O-])cc3cc([N+](=O)[O-])cc(c23)C1=O
inactive: [1] > 100 µM | [3] 22.8 µM | [4] 40 µM | [5] 1.71 µM | [6] 84.3 µM | [7] 73.6 µM | [8] 12.3 µM | [9] > 100 µM | [10] 1.41 µM | [11] > 83.4 µM | [12] > 95.7 µM | [13] 11.9 µM | [14] 13.8 µM | [15] > 100 µM | [16] 45.4 µM | [17] > 100 µM | [18] > 84.7 µM | [19] > 80.4 µM | [20] 24.7 µM
17.3 µM: [2]

CC(C)c1ccc(C2NC(S)=NC3=C2c2ccccc2C3=O)cc1 (stereo not given)
20.6 µM: [2]
inactive: [1] 27.4 µM | [3] 12 µM | [4] 27.7 µM | [5] 8.75 µM | [6] 15.7 µM | [7] 29.2 µM | [8] 38.3 µM | [9] 11.3 µM | [10] 26.5 µM | [11] 23.8 µM | [12] 25.4 µM | [13] 10.3 µM | [14] 6.97 µM | [15] 28.6 µM | [16] 16.9 µM | [17] 18.2 µM | [18] 10.2 µM | [19] 15.1 µM | [20] 28 µM
